Laboratory results as given in US6238689A, “Intestinal absorption of nicotine to treat nicotine responsive conditions” (Mayo Foundation for Medical Education and Research, priority 1998, dated 2001).
Read-outs that look alike come from different tables or passages of the source.

Assays:
[1] = cited from earlier work
[2] = oral, 45 micrograms nicotine base/kg, previous study (Benowitz et al.); cited from earlier work
[3] = Side effects of nicotine delivered to the intestine versus gum and patch; format: in vivo, human; settings: absorbed through the intestinal mucosa; inventors' belief
[4] = Side effects by questionnaire versus plasma nicotine concentration (Example 4); format: in vivo, human (healthy non-smoking volunteers)
Method: However, the threshold above which symptoms appeared varied from individual to individual with the nicotine concentration at which side effects first appeared ranging from 2.4 ng/mL to 9.9 ng/mL (although some subjects had nicotine concentrations of >11 ng/mL without symptoms).

[5] = system: cutaneous inflammatory response; settings: transdermal delivery system; cited from earlier work
[6] = human, in vivo; cited from earlier work
[7] = Pharmacokinetics of nicotine tartrate after IV and Eudragit coated delayed release oral (DRO) capsules (Example 5)
Method: Delayed-release Eudragit™ coated oral nicotine capsules were prepared by Tillotts Pharma AG, Ziefen, Switzerland and consisted of either 3 mg or 6 mg of nicotine (8.887 mg or 17.774 mg nicotine tartrate base salt, respectively). The nicotine salt was suspended in an excipient (a saturated polyglycolized glyceride; Gelucire™ 44/14, (supplied by Gattefosse France) (190 mg or 380 mg respectively) and filled into hard gelatine capsules (size 1). The capsules were then coated with Eudragit™ L30D. Eudragit™ L30D is a polymer which dissolves at about pH 6.8 in the ileum. The size of the capsule and the thickness of the Eudragit coating are similar to those used to deliver Asacol™ (Eudragit coated mesalamine) to the terminal ileum (Schroeder et al., NEJM, 317:1625-9 (1987)).
Delayed-release Eudragit coated oral nicotine/carbomer capsules were prepared by Tillotts Pharma. Nicotine/carbomer powder (1:50--nicotine carbomer) was coated with Eudragit™ L, S or LS. The coated powder was then formed into spherules, coated with Eudragit S and filled into hard gelatine capsules (size 1). The capsules were then coated with Eudragit™ L30D. In one example, the capsules contained 150 mg nicotine-carbomer complex, equivalent to 3 mg nicotine base.
The aim of this study was to determine nicotine tartrate pharmacokinetics after administration by: IV, and 3 mg and 6 mg Eudragit S coated delay release oral (DRO) capsules.
Each subject had 2 studies [DRO and 15 μg/kg (mean 1 mg) IV] separated by >1 week with the order (IV vs DRO first) randomly assigned. After nicotine administration, blood was obtained for 12 hours and serum nicotine was determined by gas chromatography/mass spectrometry. Plasma cotinine concentrations were determined HPLC in 2 subjects (both 6 mg) over 72 hours. Pharmacokinetic parameters determined were: maximum concentration (Cmax); time to Cmax (Tmax); area under the curve (AUC); bioavailability (F); volume of distribution (Vdss); clearance (CL); and half-life (T1/2).
Delayed-release Eudragit coated oral nicotine capsules were prepared in accordance with Example 3, Part A.
Delayed-release Eudragit coated oral nicotine/Carbopol capsules were prepared in accordance with Example 3, Part B.

[8] = Pharmacokinetics of nicotine after IV, oral and enema administration (Example 4)
Method: Intravenous nicotine was prepared using a nicotine base, supplied as the tartrate salt (Fisher Scientific/Eastman Kodak Company, Rochester, N.Y.). Solutions for injection were made up by combining 1.5 mg nicotine base (4.44 mg tartrate salt) in 100 ml of 0.9% sterile normal saline to form a 15 mcg/mL solution. The intravenous solution was filtered through a 0.22 micron filter into a sterile container and under sterile conditions. The solution was then cultured for organisms, assayed for endotoxin, and chemically analyzed prior to infusion to assure stable nicotine concentration. These samples were then be stored in sealed vials until the time of administration.
The oral preparation was formed by dissolving 45 micrograms nicotine base/kg body weight (133.3 micrograms tartrate salt/kg body weight) in 30 ml purified water.
The sorbitol was added to make the vehicle isoosmolar and the carboxymethylcellulose was used as a suspending agent.
Thirty paid human volunteers were admitted to the pharmacokinetic study after giving informed consent to a protocol approved by the institutional review board at the Mayo Clinic, Rochester, Minn. The subjects ranged in age from 21-56 and their body weights ranged from 45 to 153 Kg. All subjects were non-smokers and were healthy based on their histories, and physical examination. Subjects agreed to practice birth control during the study period. Complete blood count, chemistry group, urinalysis and pregnancy test (women only) were obtained. Subjects were excluded if they had cardiovascular disease, peripheral vascular disease, hypertension, were nursing mothers, had laboratory evidence of pregnancy, or had hepatic or renal dysfunction.
Each subject underwent 2 investigations (IV and non-IV) of 8 hours duration at least 1 week apart. During the IV visit, subjects were given a 15-30 minute infusion of the IV nicotine solution (15 mcg/Kg dose). […] On each study day, venous blood samples were drawn from an IV catheter into standard chemistry vacutainer tubes. Samples were obtained before nicotine administration and at the following time points (time=0 was defined as the point at which the nicotine infusion was started or the non-IV dose was administered): 5, 10, 15, 30, 60, 90 minutes, and 2, 3, 4, 5, 6, and 8 hours. Whole blood samples were centrifuged and plasma samples were then stored at -20 degrees Celsius until analysis. Plasma concentrations of nicotine were determined by gas chromatography/mass spectrometry as described by Baskin et al. (Clin. Chem., 31:76-80 (1991)).
For this study, the maximum plasma nicotine concentration (Cmax) and the time to reach Cmax (Tmax) were defined as the highest measured plasma concentrations and the time of the sample, respectively. The following pharmacokinetics parameters were calculated using standard equations (Gibaldi (ed.) Pharmcokinetics 2nd ed, Marcel Dekker Inc., New York 409-17 (1982)): area under the plasma nicotine concentration versus time curve (AUC), bioavailability (F), blood elimination half-life (T1/2), volume of distribution (Vdss), and blood nicotine clearance (Clb).
The computed bioavailability for each subject was used in an analysis of covariance to compare the five groups. Within subject (IV versus non-IV) variation was evaluated for each group of 6 subjects using a paired-T test. In addition, data was reviewed for gender variation.

[9] = Side effects after nicotine/Carbopol enema in healthy volunteers and patients with active UC (Example 6); format: in vivo, human
Method: Eight normal healthy volunteers and 8 patients with active UC were enrolled in this open label, single dose study.
The nicotine content of sample enemas was first confirmed by diluting a small volume of the contents in dilute hydrochloric acid to produce an approximate concentration of 30 ng/ml, which could then be accurately measured by our assay.
Side-effect experienced by the subjects were recorded as absent, mild, moderate or severe. Subjects were asked to report the time, nature and severity of any symptoms, at the commencement and each hour through the study, and were questioned particularly about nausea, vomiting, light-headedness, tremor, palpitations and headache. Blood pressure and pulse rate were also recorded each hour and when any symptoms occurred.

[10] = statement without test; cited from earlier work

For `CN1CCCC1c1cccnc1` (stereo not shown) [nicotine], the “effect on cardiovascular system” value ([1]; in vivo) is given as “increased heart rate and blood pressure resulting in greater myocardial work and oxygen requirement and coronary vasocontriction”, the “effect on platelets and blood lipids” value ([1]; purported) is given as “activate platelets and to adversely affect blood lipids” and the tolerability [2] is given as “well-tolerated”. For the same compound, the “bioavailability, cause” value [3] was “low bioavailability of nicotine absorbed through the intestinal mucosa appears to be largely due to its conversion to the major metabolite cotinine on first pass metabolism in the liver”, the “nicotine concentration without symptoms (some subjects)” value ([4]; plasma) was greater than 11 ng/mL and the “side effects, correlation with plasma nicotine concentrations” value ([4]; questionnaire every 30 minutes) was “closely correlated with plasma nicotine concentrations”. For the same compound, the side effects observed ([4]; variable frequency) was “nausea lightheadedness, and diaphoresis”, the “cutaneous inflammatory response to sodium lauryl sulphate and UVB radiation, and reactive hyperaemia” value [5] was “suppress the cutaneous inflammatory response to sodium lauryl sulphate (irritant) and UVB radiation, as well as reactive hyperaemia following arterial occlusion” and the “response of Alzheimer's and Parkinson's disease patients” value [6] was “beneficial response”. The first pass metabolism ([7]; 6 mg DRO versus IV) was “significant first pass metabolism”, the systemic bioavailability ([7]; DRO route to the ileocolon) was “reduced systemic bioavailability of nicotine” and the F ([7]; IV 15 μg/kg (mean 1 mg), n=20) was 100 ± 0%. It also gave a Tmax ([7]; human, in vivo, iv, […]) of 24 ± 6 min, a Vd ([7]; human, in vivo, iv, […]) of 2 ± 1 L/kg and a clearance ([7]; human, in vivo, iv, […]) of 1 L/h/kg. For the same compound, the half-life ([7]; human, in vivo, iv, […]) was 60 ± 60 min, the Tmax ([8]; human, plasma, iv, […]) was 18 ± 6 min and the AUC ([8]; human, plasma, iv, […], IV 15 mcg/kg over 15-30 min, n = 32, mean ± SD) was 0.012 ± 0.005 µg·h/mL. The Tmax ([8]; human, plasma, po, […]) was 66 ± 6 min, the bioavailability ([8]; human, plasma, po, […]) was 19% and the AUC ([8]; human, plasma, po, […], 45 mcg nicotine base/kg, n=6, analyzed on natural log scale) was 0.009 ± 0.005 µg·h/mL. For the same compound, the “subjects with no detectable plasma levels” value ([8]; oral, 45 mcg/kg) was 2 subjects, the “time at which nicotine was first detected in plasma” value ([8]; oral, 45 mcg/kg, when detectable) was 30 min and the “colonic absorption, dependence on patient position” value ([8]; pilot study, two additional subjects, enema) was “higher plasma levels detected when subjects were allowed into a sitting position immediately after administration”. The “rise in serum nicotine” value ([9]; administration to the colon) was “only modest rises in serum nicotine occur”, the tolerability ([9]; human, in vivo) was “side effects were few and the preparation well tolerated” and the “nicotine's stability” value ([9]; phosphate buffer added, final pH of 5.5) was “increasing nicotine's stability”.

In the case of `CN1C(=O)CC[C@H]1c1cccnc1` [cotinine], the “activity relative to nicotine” value [10] is listed as “less active metabolite than nicotine”.
